The target in this assay is CFTR (Homo sapiens, UniProt P13569). The experiment in a line: standard Ussing Chamber Assay for CFTR potentiator activity. The assay is classed as cell-based.
Sequence of CFTR (P13569 whole entry): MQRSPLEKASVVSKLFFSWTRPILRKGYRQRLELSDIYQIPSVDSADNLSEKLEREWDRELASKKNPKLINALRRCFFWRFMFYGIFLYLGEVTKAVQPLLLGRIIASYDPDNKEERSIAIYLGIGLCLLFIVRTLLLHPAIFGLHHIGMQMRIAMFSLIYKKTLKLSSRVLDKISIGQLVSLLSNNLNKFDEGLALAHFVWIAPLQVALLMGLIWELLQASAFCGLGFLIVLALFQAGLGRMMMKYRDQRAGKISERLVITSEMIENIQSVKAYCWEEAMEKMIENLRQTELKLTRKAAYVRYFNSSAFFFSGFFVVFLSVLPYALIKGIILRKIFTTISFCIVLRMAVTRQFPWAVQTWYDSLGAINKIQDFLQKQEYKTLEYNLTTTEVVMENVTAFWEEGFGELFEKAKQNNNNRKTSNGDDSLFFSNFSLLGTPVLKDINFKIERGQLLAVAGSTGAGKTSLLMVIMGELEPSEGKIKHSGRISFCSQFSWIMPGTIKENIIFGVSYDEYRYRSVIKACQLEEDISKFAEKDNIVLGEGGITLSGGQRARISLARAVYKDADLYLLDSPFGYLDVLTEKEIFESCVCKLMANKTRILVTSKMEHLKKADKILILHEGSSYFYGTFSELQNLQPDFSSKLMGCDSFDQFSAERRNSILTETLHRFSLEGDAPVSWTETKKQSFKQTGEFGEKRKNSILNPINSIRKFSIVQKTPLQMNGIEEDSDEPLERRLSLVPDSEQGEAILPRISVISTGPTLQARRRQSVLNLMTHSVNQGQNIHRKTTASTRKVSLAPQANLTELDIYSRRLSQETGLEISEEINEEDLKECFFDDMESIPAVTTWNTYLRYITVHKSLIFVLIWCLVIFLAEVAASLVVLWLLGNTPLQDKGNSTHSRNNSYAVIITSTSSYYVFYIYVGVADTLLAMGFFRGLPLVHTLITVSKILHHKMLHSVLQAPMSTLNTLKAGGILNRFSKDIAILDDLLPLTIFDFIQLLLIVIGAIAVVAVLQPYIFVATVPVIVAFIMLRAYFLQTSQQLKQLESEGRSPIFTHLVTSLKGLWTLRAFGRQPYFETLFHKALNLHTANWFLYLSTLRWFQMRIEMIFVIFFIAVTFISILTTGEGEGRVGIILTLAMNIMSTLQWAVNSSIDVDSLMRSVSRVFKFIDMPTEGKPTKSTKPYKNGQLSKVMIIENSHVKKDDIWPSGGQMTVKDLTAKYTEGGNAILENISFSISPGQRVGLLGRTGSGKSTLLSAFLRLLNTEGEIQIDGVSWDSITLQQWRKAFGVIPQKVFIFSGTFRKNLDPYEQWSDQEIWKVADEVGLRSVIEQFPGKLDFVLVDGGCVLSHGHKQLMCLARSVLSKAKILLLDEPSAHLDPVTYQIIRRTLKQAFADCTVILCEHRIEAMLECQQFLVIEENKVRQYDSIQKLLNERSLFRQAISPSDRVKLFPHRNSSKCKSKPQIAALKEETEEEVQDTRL

`C[C@@H]1CCCCC[C@](O)(C(F)(F)F)C2=NN=C(O2)c2nc(c(C(F)(F)F)cc2N)O1` [(6R,12R)-17-amino-12-methyl-6,15-bis(trifluoromethyl)-13,19-dioxa-3,4,18-triazatricyclo[12.3.1.12,5]nonadeca-1(18),2,4,14,16-pentaen-6-ol]: the CFTR modulatory activity entry is “confirmed”.

(Values after patent publication US20230373935A1, “MODULATORS OF CYSTIC FIBROSIS TRANSMEMBRANE CONDUCTANCE REGULATOR” (VERTEX PHARMACEUTICALS INCORPORATED, priority 2020, published 2023).)
